In patent US20100292185A1, “BETA-LACTAMASE INHIBITORS” (priority 2009, published 2010):
Structures can show the parent of a compound that is named as a salt.

Assays:
[1] = target: T1, SHV-5 β-lactamase (Klebsiella pneumoniae, UniProt P0A3M1); assay: β-lactamase enzyme inhibition assay (nitrocefin substrate), SHV-5; assay type: biochemical
T1 construct: expressed as native untagged proteins; made in house; host or cells: E. coli BL21(DE3)
Method in brief: (§1)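 Untagged recombinant β-lactamases from E. coli BL21(DE3), purified by ion exchange and gel filtration; 10 min, 37 °C preincubation with compound in PBS pH 7.0; nitrocefin 100 μM final; A486 kinetics, 10 min; IC50 from max rate vs control.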

[2] = target: T2, CTX-M15 β-lactamase (Escherichia coli, UniProt Q9EXV5); assay: β-lactamase enzyme inhibition assay (nitrocefin substrate), CTXM-15; assay type: biochemical
T2 construct: expressed as native untagged proteins; made in house; host or cells: E. coli BL21(DE3)
Method in brief: as §1

[3] = target: T3, p99 AmpC β-lactamase (Enterobacter cloacae, UniProt P05364); assay: β-lactamase enzyme inhibition assay (nitrocefin substrate), P99 AmpC; assay type: biochemical; details: nitrocefin 100 μM, 37° C., PBS pH 7.0; read-out: P99 AmpC IC50
T3 construct: expressed as native untagged proteins; made in house; host or cells: E. coli BL21(DE3)
Method in brief: as §1

[4] = target: T4, KPC-2 β-lactamase (Klebsiella pneumoniae, UniProt Q9F663); assay: β-lactamase enzyme inhibition assay (nitrocefin substrate), KPC-2; assay type: biochemical
T4 construct: expressed as native untagged proteins; made in house; host or cells: E. coli BL21(DE3)
Method in brief: as §1

[5] = target: T5, VIM-2 metallo β-lactamase (Pseudomonas aeruginosa, UniProt Q9K2N0); assay: β-lactamase enzyme inhibition assay (nitrocefin substrate), VIM-2; assay type: biochemical; details: nitrocefin 100 μM, 37° C., PBS pH 7.0; read-out: VIM-2 IC50
T5 construct: made in house
Method in brief: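 VIM-2 was expressed untagged in E. coli BL21(DE3) and purified by two Q sepharose anion-exchange runs plus gel filtration to >90% purity. Compounds at 100–0.005 μM in PBS pH 7.0 were preincubated with enzyme for 10 min at 37° C, then nitrocefin was added at 100 μM final. Hydrolysis was followed kinetically at 486 nm for 10 min; IC50 is the concentration halving the initial rate relative to no-inhibitor wells.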

[6] = target: T6, OXA-23 β-lactamase (Acinetobacter baumannii, UniProt Q9L4P2); assay: β-lactamase enzyme inhibition assay (nitrocefin substrate), OXA-23 crude extract; assay type: biochemical; details: nitrocefin 100 μM, 37° C., PBS pH 7.0; read-out: OXA-23 IC50
T6 construct: crude β-lactamase extracts were prepared from 20 ml overnight cultures; endogenous in cells; host or cells: Acinetobacter baumannii cells containing OXA-23 (crude freeze-thaw extract)
Method in brief: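 Crude enzyme came from freeze-thaw extracts of mid-log OXA-23-carrying A. baumannii grown in MH-II broth at 37° C. Inhibitors (100–0.005 μM in PBS pH 7.0) were preincubated with the enzyme for 10 min at 37° C, then 100 μM nitrocefin (final) was added and read kinetically at 486 nm for 10 min. IC50 was taken from initial hydrolysis rates relative to uninhibited controls.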

[7] = system: E. coli expressing the Class A ESBL SHV-5; assay: In vitro antibacterial assay of β-lactamase inhibition (broth microdilution MIC), E. coli SHV-5; assay type: cell-based; details: in presence of Ceftazidime 8 μg/ml (Examples 1-56)
Method in brief: (§2)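 Broth microdilution in cation-adjusted Mueller Hinton broth; strains pre-grown 3–5 h with 50 μg/mL ampicillin. Test compounds 2-fold serially diluted to a final 8–0.015 μg/mL alongside a β-lactam, CLSI inoculum. MIC read visually after 16–20 h at 37° C.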

[8] = system: K. pneumoniae expressing the Class A Extended Spectrum Beta-Lactamase (ESBL) CTX-M-15; assay: In vitro antibacterial assay of β-lactamase inhibition (broth microdilution MIC), K. pneumoniae CTX-M-15; assay type: cell-based; details: in presence of Ceftazidime 8 μg/ml (Examples 1-56)
Method in brief: as §2

[9] = system: E. cloacae expressing the Class C P99+; assay: In vitro antibacterial assay of β-lactamase inhibition (broth microdilution MIC), E. cloacae P99+; assay type: cell-based; details: in presence of Ceftazidime 8 μg/ml (Examples 1-56)
Method in brief: as §2

[10] = system: K. pneumoniae expressing the Class A carbapenemase KPC-2; assay: microbe, parasite or virus in culture; assay type: cell-based; details: in presence of Ceftazidime 8 μg/ml (Examples 1-56)
Method in brief: as §2

[11] = system: P. aeruginosa expressing the Class B metallo β-lactamase VIM-2; assay: In vitro antibacterial assay of β-lactamase inhibition (broth microdilution MIC), P. aeruginosa VIM-2; assay type: cell-based; details: in presence of Ceftazidime 16 μg/mL (Examples 1-56)
Method in brief: as §2

T4 sequence (Q9F663 25-293 limits assumed): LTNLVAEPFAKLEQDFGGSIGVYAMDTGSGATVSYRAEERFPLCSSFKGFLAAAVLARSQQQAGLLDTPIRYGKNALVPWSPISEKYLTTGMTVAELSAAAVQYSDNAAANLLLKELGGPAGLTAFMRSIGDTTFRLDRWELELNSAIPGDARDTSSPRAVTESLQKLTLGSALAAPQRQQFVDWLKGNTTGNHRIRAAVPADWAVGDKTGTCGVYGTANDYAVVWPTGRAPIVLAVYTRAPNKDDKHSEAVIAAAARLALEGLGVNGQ
T2 sequence (Q9EXV5 entry or part of it): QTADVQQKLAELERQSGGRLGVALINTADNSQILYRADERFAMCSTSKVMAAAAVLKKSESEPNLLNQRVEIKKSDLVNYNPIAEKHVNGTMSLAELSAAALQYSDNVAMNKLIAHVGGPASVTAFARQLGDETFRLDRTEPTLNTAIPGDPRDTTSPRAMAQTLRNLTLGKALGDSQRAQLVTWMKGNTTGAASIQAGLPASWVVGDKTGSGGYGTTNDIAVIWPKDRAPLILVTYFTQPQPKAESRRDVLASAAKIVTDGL
T6 sequence (Q9L4P2 18-273): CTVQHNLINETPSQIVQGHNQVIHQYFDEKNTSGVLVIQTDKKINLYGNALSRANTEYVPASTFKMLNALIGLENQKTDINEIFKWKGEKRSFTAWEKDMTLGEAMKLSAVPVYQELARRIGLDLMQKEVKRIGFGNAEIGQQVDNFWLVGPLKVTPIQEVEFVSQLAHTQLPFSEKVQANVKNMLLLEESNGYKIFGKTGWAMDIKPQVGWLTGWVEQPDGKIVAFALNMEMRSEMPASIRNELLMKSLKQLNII
T1 sequence (P0A3M1 22-286): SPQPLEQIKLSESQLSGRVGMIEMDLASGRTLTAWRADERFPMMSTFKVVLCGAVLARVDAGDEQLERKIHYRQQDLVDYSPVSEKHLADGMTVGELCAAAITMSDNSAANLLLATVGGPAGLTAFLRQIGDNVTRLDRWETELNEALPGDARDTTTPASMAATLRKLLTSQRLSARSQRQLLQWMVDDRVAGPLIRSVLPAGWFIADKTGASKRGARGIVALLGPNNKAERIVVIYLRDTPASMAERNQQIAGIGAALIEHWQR
T3 sequence (P05364 21-381): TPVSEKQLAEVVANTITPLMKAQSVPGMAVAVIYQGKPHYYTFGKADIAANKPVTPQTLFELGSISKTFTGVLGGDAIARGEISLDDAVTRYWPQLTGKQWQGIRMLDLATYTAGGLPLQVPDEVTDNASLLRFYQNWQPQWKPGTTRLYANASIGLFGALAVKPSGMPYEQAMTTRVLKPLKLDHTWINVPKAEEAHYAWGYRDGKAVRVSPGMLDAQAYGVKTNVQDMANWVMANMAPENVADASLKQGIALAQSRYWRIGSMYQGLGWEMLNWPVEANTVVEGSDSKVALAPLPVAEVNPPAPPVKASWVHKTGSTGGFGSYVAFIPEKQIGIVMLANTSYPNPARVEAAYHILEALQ

SMILES | IC50 [1] | IC50 [2] | IC50 [3] | IC50 [4] | IC50 [5] | IC50 [6] | MIC of example compound, E. coli SHV-5 [7] | MIC of example compound, K. pneumoniae CTX-M-15 [8] | MIC of example compound, E. cloacae P99+ [9] | MIC of example compound, K. pneumoniae KPC-2 [10] | MIC of example compound, P. aeruginosa VIM-2 [11]
NCCNCc1cccc(C(=O)N[C@@H](Cc2cccc(C(=O)O)c2O)B(O)O)c1 [Example 18, (1R)-[3-{(2-aminoethylamino)-methyl}-benzoylamino]-(3-carboxy-2-hydroxy)benzyl-methylboronic acid formate] | 257 nM | 1 nM | 0.3 nM | 14 nM | 99 nM | 41 nM | 8 µg/mL | 0.5 µg/mL | 0.25 µg/mL | 0.06 µg/mL | >8 µg/mL
O=C(N[C@@H](Cc1cccc(C(=O)O)c1O)B(O)O)c1cccc(CNCc2cccnc2)c1 [Example 19, (1R)-(3-{[(pyridin-3-ylmethyl)amino]methyl}-benzoylamino)-(3-carboxy-2-hydroxy)benzyl-methylboronic acid formate] | 54 nM | 1 nM | 0.2 nM | 6 nM | 510 nM | 19 nM | 8 µg/mL | 2 µg/mL | 2 µg/mL | 0.12 µg/mL | >8 µg/mL
O=C(N[C@@H](Cc1cccc(C(=O)O)c1O)B(O)O)c1cccc(CN2CCNCC2)c1 [Example 20, (1R)-(3-piperazin-1-ylmethyl-benzoylamino-(3-carboxy-2-hydroxy)benzyl-methylboronic acid formate] | 42 nM | 20 nM | 0.3 nM | 9 nM | 179 nM | 22 nM | 4 µg/mL | 1 µg/mL | 2 µg/mL | 0.03 µg/mL | >8 µg/mL
CNCc1cccc(C(=O)N[C@@H](Cc2cccc(C(=O)O)c2O)B(O)O)c1 [Example 21, (1R)-(3-methylaminomethyl-benzoylamino)-(3-carboxy-2-hydroxy)benzyl-methylboronic acid formate] | 830 nM | 3 nM | 2 nM | 19 nM | 142 nM | 33 nM | 4 µg/mL | 1 µg/mL | 0.25 µg/mL | 0.01 µg/mL | >8 µg/mL
Cc1cc(NCc2cccc(C(=O)N[C@@H](Cc3cccc(C(=O)O)c3O)B(O)O)c2)no1 [Example 28, (1R)-[3-{(5-methyl-isoxazol-3-ylamino)-methyl}-benzoylamino]-(3-carboxy-2hydroxy)benzyl-methylboronic acid formate] | 15 nM | 0.7 nM | 0.2 nM | 4 nM | 304 nM | 9 nM | 8 µg/mL | 4 µg/mL | 2 µg/mL | 2 µg/mL | >8 µg/mL
NCc1cccc(CC(=O)N[C@@H](Cc2cccc(C(=O)O)c2O)B(O)O)c1 [Example 29, (1R)-[2-(3-aminomethyl-phenyl)-acetylamino]-(3-carboxy-2hydroxy)benzyl-methylboronic acid formate] | 5 nM | 9 nM | 6 nM | 16 nM | 882 nM | 591 nM | 0.5 µg/mL | 0.12 µg/mL | 0.12 µg/mL | 0.03 µg/mL | >8 µg/mL
NCc1ccc(CC(=O)N[C@@H](Cc2cccc(C(=O)O)c2O)B(O)O)cc1 [Example 30, (1R)-[2-(4-aminomethyl-phenyl)-acetylamino]-(3-carboxy-2hydroxy)benzyl-methylboronic acid formate] | 3 nM | 7 nM | 12 nM | 9 nM | 271 nM | 252 nM | 0.5 µg/mL | 0.06 µg/mL | 0.12 µg/mL | 0.01 µg/mL | >8 µg/mL
O=C(N[C@@H](Cc1cccc(C(=O)O)c1O)B(O)O)c1cccc(CNc2nccs2)c1 [Example 31, (1R)-[3-(thiazol-2-ylaminomethyl)-benzoylamino]-(3-carboxy-2-hydroxy)benzyl-methylboronic acid] | 13 nM | 0.5 nM | 0.6 nM | 3 nM | 295 nM | 10 nM | 8 µg/mL | 4 µg/mL | 2 µg/mL | 0.25 µg/mL | >8 µg/mL
CC(=O)NCc1ccc(CC(=O)N[C@@H](Cc2cccc(C(=O)O)c2O)B(O)O)cc1 [Example 32, (1R)-[2-(4-acetylaminomethyl-phenyl)-acetylamino]-(3-carboxy-2hydroxy)benzyl-methylboronic acid] | 0.3 nM | 2 nM | 2 nM | 4 nM | > 1000 nM | 116 nM | 0.5 µg/mL | 0.5 µg/mL | >8 µg/mL | 4 µg/mL | >8 µg/mL
CNCc1ccc(CC(=O)N[C@@H](Cc2cccc(C(=O)O)c2O)B(O)O)cc1 [Example 33, (1R)-[2-(4-methylaminomethyl-phenyl)-acetylamino]-(3-carboxy-2hydroxy)benzyl-methylboronic acid formate] | 5 nM | 8 nM | 7 nM | 12 nM | 336 nM | 379 nM | 0.5 µg/mL | 0.12 µg/mL | 0.25 µg/mL | 0.06 µg/mL | >8 µg/mL
O=C(Cc1ccc(CNCCO)cc1)N[C@@H](Cc1cccc(C(=O)O)c1O)B(O)O [Example 34, (1R)-[2-{4-((2-hydroxy-ethylamino)-methyl)-phenyl}-acetylamino]-(3-carboxy-2hydroxy)benzyl-methylboronic acid formate] | 5 nM | 7 nM | 4 nM | 18 nM | 580 nM | 256 nM | 0.5 µg/mL | 0.12 µg/mL | 0.5 µg/mL | 0.03 µg/mL | >8 µg/mL
NCCNCc1ccc(CC(=O)N[C@@H](Cc2cccc(C(=O)O)c2O)B(O)O)cc1 [Example 35, (1R)-[2-{4-((2-amino-ethylamino)-methyl)-phenyl}-acetylamino]-(3-carboxy-2hydroxy)benzyl-methylboronic acid formate] | 2 nM | 7 nM | 5 nM | 17 nM | 196 nM | 97 nM | 0.5 µg/mL | 0.25 µg/mL | 0.25 µg/mL | 0.03 µg/mL | >8 µg/mL
